These compounds were tested against Tyrosine-protein phosphatase non-receptor type 7 (Homo sapiens) (UniProt P35236) (assay: inhibition of HePTP dephosphorylation activity – biochemical, DiFMUP fluorescence, recombinant human enzyme (AID 401)). Settings: recombinant PTPN7, DiFMUP fluorescence; at 50 µM; enzyme 37.6 ng/mL; 25 °C; DTT 5 mM; stronger effect = higher value.
Tyrosine-protein phosphatase non-receptor type 7 (Homo sapiens), sequence (P35236 whole entry, looked up): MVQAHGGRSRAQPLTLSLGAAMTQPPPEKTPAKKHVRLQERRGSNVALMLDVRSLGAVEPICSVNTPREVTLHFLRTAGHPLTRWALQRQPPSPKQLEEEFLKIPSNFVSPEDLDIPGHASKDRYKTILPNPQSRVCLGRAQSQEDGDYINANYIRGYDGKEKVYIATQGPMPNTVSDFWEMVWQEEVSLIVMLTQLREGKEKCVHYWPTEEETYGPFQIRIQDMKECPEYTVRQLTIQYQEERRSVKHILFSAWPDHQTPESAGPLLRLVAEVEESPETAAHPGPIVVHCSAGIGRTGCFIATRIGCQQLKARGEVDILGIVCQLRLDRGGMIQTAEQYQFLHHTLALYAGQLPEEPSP

Question: Which inhibition does the source give for `OO.OO.[K+].[O]=[V].c1cnc2c(c1)ccc1cccnc12` here?
Answer: Its inhibition is 55%.

Question: Which inhibition does the source give for `Cn1nc(-c2ccccc2)nc2c(=O)n(C)c(=O)nc1-2` here?
Answer: Its inhibition is 37%.

Question: Which inhibition does the source give for `O=C([O-])c1ccccn1.OO.OO.[K+].[K+].[O]=[V]` here?
Answer: The inhibition was 71.5%.

Question: How did the inhibition turn out when `O=C(O)c1ccc(O)cn1.OO.[O]=[V]` was run?
Answer: The inhibition was 58.5%.

Same assay, conditions: recombinant PTPN7, DiFMUP fluorescence; at 50 µM; enzyme 55 ng/mL; 25 °C; DTT 5 mM; stronger effect = higher value

Question: With `Cc1cc(C)c(N2C(=O)c3ccc(C(=O)Nc4ccc(O)cc4C(=O)O)cc3C2=O)c(C)c1` as the compound, how does the inhibition read?
Answer: The inhibition was 44%.

Question: For `Oc1c(Cl)c(Cl)c(O)c2nsnc12`, which inhibition is on record?
Answer: The inhibition was 24%.

Question: How did the inhibition turn out when `O=C(O)c1ccc(O)c(C=Nc2ccc3oc(-c4ccc(F)cc4Cl)nc3c2)c1` was run?
Answer: Its inhibition is 100%.

Question: `CN(N=O)c1ccc(O)c(O)c1` was tested. Which inhibition did it give?
Answer: The inhibition was 92%.

Question: With `CCn1nc(/C=C/c2ccccc2)nc2c(=O)n(C)c(=O)nc1-2` as the compound, how does the inhibition read?
Answer: The inhibition was 39%.

Question: With `O=C(O)c1ccc(O)c(C=Nc2ccc3oc(-c4cccc(Cl)c4Cl)nc3c2)c1` as the compound, how does the inhibition read?
Answer: The inhibition was 61%.

Question: For `O=C(O)c1ccc([O-])cn1.OO.OO.[K+].[K+].[O]=[V]`, which inhibition is on record?
Answer: The inhibition was 76%.

Question: How did the inhibition turn out when `O=C(O)c1ccc(O)c(C=Nc2cccc(-c3nc4ccccc4o3)c2)c1` was run?
Answer: Its inhibition is 40%.

Question: For `Cn1nc(/C=C/c2ccccc2)nc2c(=O)n(C)c(=O)nc1-2`, which inhibition is on record?
Answer: The inhibition was 45%.

Question: `CC1=C(C)OC(Nc2ccc(Cl)cc2C(=O)O)C=C1` (configuration not stated) was tested. Which inhibition did it give?
Answer: The inhibition was 25%.

Question: For `O=C(O)c1ccc(O)c(C=Nc2ccc3oc(-c4cccc(Cl)c4)nc3c2)c1`, which inhibition is on record?
Answer: The inhibition was 25%.

Question: With `O=C(O)c1ccc(O)c(/C=N/N(CCO)C2=NS(=O)(=O)c3ccccc32)c1` as the compound, how does the inhibition read?
Answer: Its inhibition is 57%.

Question: `Cc1ccc(C)n1-c1ccc(C(=O)O)cc1O` was tested. Which inhibition did it give?
Answer: The inhibition was 47%.

Question: With `Cc1cccc(O)c1N=Cc1cc(C(=O)O)ccc1O` as the compound, how does the inhibition read?
Answer: The inhibition was 37%.

Question: `Cc1c(Cl)c(C)c([N+](=O)[O-])c(O)c1C=Nc1ccc(O)cc1C(=O)O` was tested. Which inhibition did it give?
Answer: The inhibition was 62%.

Question: For `CC(C)CCN1C(=O)c2ccc(C(=O)Nc3ccc(O)cc3C(=O)O)cc2C1=O`, which inhibition is on record?
Answer: The inhibition was 45%.

Question: How did the inhibition turn out when `[NH-]CO.[NH-]CO.[NH-]CO.[NH-]CO.[O]=[V][O][V]=[O]` was run?
Answer: Its inhibition is 58%.

Question: For `CCn1nc(/C=C/c2ccccc2)[n+](=O)c2c(=O)n(C)c(=O)[nH]c21`, which inhibition is on record?
Answer: Its inhibition is 32%.

Question: With `CCn1nc(-c2ccc(Cl)cc2)nc2c(=O)n(C)c(=O)nc1-2` as the compound, how does the inhibition read?
Answer: Its inhibition is 58%.

Question: For `OO.OO.[K+].[O]=[V].c1ccc(-c2ccccn2)nc1`, which inhibition is on record?
Answer: Its inhibition is 69%.

Question: With `O=C1NC(=S)S/C1=C\C=C\c1ccc([N+](=O)[O-])o1` as the compound, how does the inhibition read?
Answer: Its inhibition is 99%.

Question: For `Cc1ccc(N=Cc2cc(C(=O)O)ccc2O)c(O)c1`, which inhibition is on record?
Answer: Its inhibition is 42%.

Question: `COc1ccc(-c2nc3cc(N=Cc4cc(C(=O)O)ccc4O)ccc3o2)cc1` was tested. Which inhibition did it give?
Answer: The inhibition was 80%.

Question: Which inhibition does the source give for `CC(C)CN1C(=O)c2ccc(C(=O)Nc3ccc(O)cc3C(=O)O)cc2C1=O` here?
Answer: The inhibition was 26%.

Question: How did the inhibition turn out when `O=C(O)c1ccc(O)c(N2C(=O)Nc3ccccc3N2O)c1` was run?
Answer: The inhibition was 41%.

Question: For `O=C(O)c1ccc(O)c(C=Nc2ccc3oc(-c4cc(Cl)ccc4Cl)nc3c2)c1`, which inhibition is on record?
Answer: The inhibition was 39%.

Question: `O=C(O)c1ccc(O)c(C=Nc2ccc3oc(-c4ccccc4)nc3c2)c1` was tested. Which inhibition did it give?
Answer: The inhibition was 31%.

Question: Which inhibition does the source give for `COc1ccc(OC)c(N=Cc2cc(C(=O)O)ccc2O)c1` here?
Answer: The inhibition was 31%.

Question: Which inhibition does the source give for `COc1cccc(-c2nc3cc(N=Cc4cc(C(=O)O)ccc4O)ccc3o2)c1` here?
Answer: Its inhibition is 56%.

Question: For `Cc1ccc2nc(-c3cc(N=Cc4cc(C(=O)O)ccc4O)ccc3O)[nH]c2c1`, which inhibition is on record?
Answer: The inhibition was 98%.

Question: With `CCOC(=O)c1ccc(N=Cc2cc(C(=O)O)ccc2O)cc1` as the compound, how does the inhibition read?
Answer: Its inhibition is 39%.

Question: With `NC1=NC(=O)/C(=C/C=C/c2ccc([N+](=O)[O-])o2)S1` as the compound, how does the inhibition read?
Answer: Its inhibition is 94%.

Question: `O=C(COc1ccc([N+](=O)[O-])cc1)Nc1ccc(O)cc1C(=O)O` was tested. Which inhibition did it give?
Answer: The inhibition was 13%.

Question: For `CCn1nc(-c2ccccc2)nc2c(=O)n(C)c(=O)nc1-2`, which inhibition is on record?
Answer: Its inhibition is 16%.

Question: How did the inhibition turn out when `O=C1NC(=S)NC(=O)C1=C/C=C/c1ccco1` was run?
Answer: The inhibition was 97%.

Question: With `Cc1ccc(C)n1-c1cc(C(=O)O)ccc1O` as the compound, how does the inhibition read?
Answer: Its inhibition is 77%.

Question: How did the inhibition turn out when `O=C(Nc1ccc(O)cc1C(=O)O)c1ccc2c(c1)C(=O)N(CC1CCCO1)C2=O` (configuration not stated) was run?
Answer: Its inhibition is 35%.

Question: For `CC(=O)c1ccc2c(c1)C1C=CCC1C(C(=O)O)N2` (configuration not stated), which inhibition is on record?
Answer: The inhibition was 89%.
